Non-standard residues stand in square brackets, D forms with d. Primed or numbered codes have the meaning given here. No end group written: not given here. Ida = iminodiacetic acid linker, its two carboxyls bind the Lys side-chain amines of two peptides, giving a homodimer; Ida(3) = iminodiacetic acid linker, Lys side-chain amines bound to its two carboxyl groups; Ida(4) = iminodiacetic acid linker (dimerization linker bound to lysine side chain); Cha = N[C@@H](CC1CCCCC1)C(=O)O; Phg = N[C@H](C(=O)O)c1ccccc1; Ahx = NCCCCCC(=O)O

Broadly, the IC50 is the midpoint of a concentration-inhibition curve.

The first assay relates to HUVECs. It is filed as cell-based. The conditions noted are these: 48 h. A digest of the protocol:
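HUVECs seeded at 5,000 cells/well in EBM with 2% FCS, adhered ≥12 hours, then stimulated with bFGF 10 ng/ml or VEGF 5 ng/ml plus varying peptide concentrations. After 48 hours at 37 ° C, 5% CO2, proliferation inhibition read by BrdU incorporation.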
The molecule `CC[C@H](C)[C@H](NC(=O)[C@H](C)NC(=O)[C@@H](NC(=O)[C@H](C)NC(=O)[C@H](CCC(N)=O)NC(=O)[C@H](CCCNC(=N)N)NC(=O)[C@H](CCCNC(=N)N)NC(=O)[C@H](CCCNC(=N)N)NC(=O)[C@H](CCCNC(=N)N)NC(=O)[C@H](CCCNC(=N)N)NC(C)=O)C(C)C)C(=O)N[C@@H](Cc1c[nH]cn1)C(=O)N[C@@H](Cc1ccccc1)C(=O)N[C@@H](CCCCNC(=O)CN(CC(=O)NCCCC[C@H](NC(=O)[C@H](Cc1ccccc1)NC(=O)[C@H](Cc1c[nH]cn1)NC(=O)[C@@H](NC(=O)[C@H](C)NC(=O)[C@@H](NC(=O)[C@H](C)NC(=O)[C@H](CCC(N)=O)NC(=O)[C@H](CCCNC(=N)N)NC(=O)[C@H](CCCNC(=N)N)NC(=O)[C@H](CCCNC(=N)N)NC(=O)[C@H](CCCNC(=N)N)NC(=O)[C@H](CCCNC(=N)N)NC(C)=O)C(C)C)[C@@H](C)CC)C(N)=O)C(=O)CCNC(=O)OC(C)(C)C)C(N)=O` [Peptide 250] registered a concentration for half-maximal inhibition (IC50) below 10 µM.
Same read-out and setting: in the case of `CC[C@H](C)[C@H](NC(=O)[C@H](CCCNC(=N)N)NC(=O)[C@@H](NC(=O)[C@H](CCCNC(=N)N)NC(=O)[C@H](CCC(N)=O)NC(=O)[C@H](CCCNC(=N)N)NC(=O)[C@H](CCCNC(=N)N)NC(=O)[C@H](CCCNC(=N)N)NC(=O)[C@H](CCCNC(=N)N)NC(=O)[C@H](CCCNC(=N)N)NC(C)=O)C(C)C)C(=O)N[C@@H](Cc1ccc(O)cc1)C(=O)N[C@@H](Cc1ccccc1)C(=O)N[C@@H](CCCCNC(=O)CN(CC(=O)NCCCC[C@H](NC(=O)[C@H](Cc1ccccc1)NC(=O)[C@H](Cc1ccc(O)cc1)NC(=O)[C@@H](NC(=O)[C@H](CCCNC(=N)N)NC(=O)[C@@H](NC(=O)[C@H](CCCNC(=N)N)NC(=O)[C@H](CCC(N)=O)NC(=O)[C@H](CCCNC(=N)N)NC(=O)[C@H](CCCNC(=N)N)NC(=O)[C@H](CCCNC(=N)N)NC(=O)[C@H](CCCNC(=N)N)NC(=O)[C@H](CCCNC(=N)N)NC(C)=O)C(C)C)[C@@H](C)CC)C(N)=O)C(=O)CCNC(=O)OC(C)(C)C)C(N)=O` [Peptide 279] it was below 10 µM.

Still in this assay, the particulars now being: HUVEC proliferation, bFGF at 10 ng/ml or VEGF at 5 ng/ml, 48 hours, BrdU incorporation; read-out: IC50 on HUVECs.
As for “169 (Ac-KRRRRRQRVRIIF; also: homodimer via Ida linker on Lys1 side chains) [compound 169]”, the concentration for half-maximal inhibition (IC50) was below 10 µM.
Still for that read-out and setting: in the case of “317 (Ac-ARRRRQHVAIYFK(Ida)-NH2; also: homodimer via Ida linker on Lys13 side chain) [compound 317]” it was below 10 µM; in that of “492 (Ac-ARRRNQSVAIKF; not fully specified (residue 11); also: homodimer: Lys11 side chain bound to Ida linker (Boc on Ida N)) [compound 492]”, 10 to 30 µM.
Same read-out and setting: then KTKRKRKKQRVKIAYEQNM [compound 40], with above 30 µM.
In the case of “436 (Ac-RRRRLQAVAIYFK(Ida(4)); not fully specified (C-terminus); also: homodimer via Ida linker at K13) [compound 436]”, the concentration for half-maximal inhibition (IC50) is below 10 µM.
Still for that read-out and setting: in the case of “255 (Ac-ARRRRQRVA[dI]IFK-NH2; not fully specified (residue 13); also: homodimer via Ida linker on Lys13 side chains) [compound 255]” it was below 10 µM.
On to “187 (Ac-RRRHRQRVRIIF; also: dimer: C-terminal Phe bound to an amino group of a Lys linker, 2 chains per Lys) [compound 187]”, for which the IC50 was below 10 µM.
Still for that read-out and setting: in the case of “431 (Ac-ARRRRQAVAIYK(Ida(4))F; also: homodimer via Ida linker at K12) [compound 431]” it was below 10 µM.
Still for that read-out and setting: then “203 (Ac-RRARAQRVRIIF; also: dimer: C-terminal Phe bound to an amino group of a Lys linker, 2 chains per Lys) [compound 203]”, with below 10 µM; and “440 (Ac-RRRRSQAVAIYFK(Ida(4)); not fully specified (C-terminus); also: homodimer via Ida linker at K13) [compound 440]”, with below 10 µM; and “411 (Ac-TRRRRQAVAIYFK; not fully specified (residue 13, C-terminus); also: homodimer via Ida linker on Lys side chains, linker at 13 via Ida, other end not in the chain) [compound 411]”, with below 10 µM.
Consider “469 (Ac-ARRRRQRVAIYFKARRRRQRVAIYFK; not fully specified) [compound 469]”, for which the IC50 is below 10 µM.
Still for that read-out and setting: in the case of KRKKQQRVKIAYEEIFV [compound 77] it was above 30 µM; in that of “391 (Ac-ARRRRQAVNIYFK; not fully specified (residue 13, C-terminus); also: homodimer of residues 1-13 via Ida linker at Lys13 side chain) [compound 391]”, below 10 µM.
On the same count and under the same terms, in the case of “470 (Ac-PRRRDQAVAIYFK(Ida(3)); not fully specified (C-terminus); also: homodimer via Ida linker on Lys13 side chain) [compound 470]” it was above 30 µM; in that of KRKRKKQRVKIIFV [compound 87], below 10 µM; in that of “413 (Ac-WRRRRQAVAIYFK; not fully specified (residue 13, C-terminus); also: homodimer via Ida linker on Lys side chains, linker at 13 via Ida, other end not in the chain) [compound 413]”, below 10 µM.
As for “378 (Ac-ARRRRQRVAIQFK-NH2; not fully specified (residue 13); also: homodimer via Ida linker on Lys13 side chain, Ida amine Boc) [compound 378]”, the concentration for half-maximal inhibition (IC50) is below 10 µM.
Take “207 (Ac-RRRARQAVRIIF; also: dimer: Phe C-termini joined via Lys linker) [compound 207]”: the concentration for half-maximal inhibition (IC50) was below 10 µM.
Same read-out and setting: in the case of “200 (Ac-RARRRQAVRIIF; also: dimer: C-terminal Phe bound to an amino group of a Lys linker, 2 chains per Lys) [compound 200]” it was below 10 µM; in that of “477 (Ac-PRRRSQAVAIYFK(Ida(3)); not fully specified (C-terminus); also: homodimer via Ida linker on Lys13 side chain) [compound 477]”, 10 to 30 µM; in that of KTKRKRKKQAAKIAYEEIFVQNM [compound 73], above 30 µM.
With “307 (Ac-RRRRRQAVRK(Ida)IFV; also: homodimer via Ida linker on Lys10 side chain) [compound 307]”, the half-maximal inhibitory concentration (IC50) is below 10 µM.
Still for that read-out and setting: then “260 (Ac-ARRR[dR]QRVAIIFK-NH2; not fully specified (residue 13); also: homodimer via Ida linker on Lys13 side chains) [compound 260]”, with below 10 µM; and KTKRKRKKQRVKIIAVQNM [compound 109], with above 30 µM; and KRKKQRVKIAYEEIFVKNM [compound 10], with 10 to 30 µM.
“484 (Ac-ARRRNQAVAIKF; not fully specified (residue 11); also: homodimer: Lys11 side chain bound to Ida linker (Boc on Ida N)) [compound 484]”: the half-inhibitory concentration (IC50) was below 10 µM.
Same read-out and setting: in the case of “27 (Ac-RTRRRRRRQRVRIAYEEIFVRNM[Ahx]K; not fully specified) [compound 27]” it was 10 to 30 µM; in that of “482 (Ac-PRRRRQAVAIKF; not fully specified (residue 11); also: homodimer via Ida linker on Lys11 side chain) [compound 482]”, below 10 µM.
The same measure, in the same setting: in the case of “374 (Ac-ARRRRQRVA[Phg]YFK(Ida(3))-NH2; also: homodimer via Ida linker on Lys13 side chain, Boc on Ida amine) [compound 374]” it was below 10 µM; in that of “344 (Ac-ARRRRQRVAIY[Cha]K-NH2; not fully specified (residue 13); also: homodimer: Lys13 side chains joined by Ida (iminodiacetic acid) linker) [compound 344]”, below 10 µM.
Still for that read-out and setting: then “509 (Ac-ARRRRARVAIYFK; not fully specified (C-terminus); also: homodimer via Ida linker at Lys13 side chain) [compound 509]”, with below 10 µM.
Consider “321 (XRRRRQHVAIYFK; Xaa = Acylated Histidine; The side chain of Lysine at position 13 is covalently bound to an Ida linker forming a homodimer of residues 1 through 13.) [compound 321]”, for which the IC50 is below 10 µM.
The same measure, in the same setting: in the case of “487 (Ac-ARRRRQPVAIKF; not fully specified (residue 11); also: homodimer: Lys11 side chain bound to Ida linker (Boc on Ida N)) [compound 487]” it was 10 to 30 µM.
On the same count and under the same terms, then “319 (Ac-ARRRRQHVHIYFK(Ida)-NH2; also: homodimer via Ida linker on Lys13 side chain) [compound 319]”, with below 10 µM; and “353 (Ac-ARRRRQRVAIYYK-NH2; not fully specified (residue 13); also: homodimer of residues 1-13 via Ida linker on K13 side chain) [compound 353]”, with above 30 µM.
